Read-outs that look alike come from different tables or passages of the source.
Columns and labels:
[1] = tested on: subjects of phase I study; settings: cited from earlier work
[2] = tested on: patients with septic shock and elevated adrenomedullin; test: AdrenOSS-2 phase II clinical trial, mortality versus placebo; assay type: in vivo, human
[3] = tested on: mice with CLP-induced sepsis; settings: pre-treatment, cited from earlier work
[4] = tested on: endotoxemic rats; settings: pre-treatment; cited from earlier work
[5] = tested on: patients with septic shock and elevated adrenomedullin; test: AdrenOSS-2 phase II clinical trial, mortality versus placebo; assay type: in vivo, human; settings: for all-cause mortality compared to the placebo arm: 28 days
Source text: AdrenOSS-2 is a double-blind, placebo-controlled, randomized, multicenter, proof of concept and dose-finding phase II clinical trial to investigate the safety, tolerability and efficacy of the N-terminal ADM antibody named Adrecizumab in patients with septic shock and elevated adrenomedullin (Geven et al. BMJ Open 2019; 9:e024475). In total, 301 patients with septic shock and bio-ADM concentration >70 pg/mL were randomized (2:1:1) to treatment with a single intravenous infusion over approximately 1 hour with either placebo (n=152), adrecizumab 2 ng/kg (n=72) or adrecizumab 4 ng/kg (n=77). All-cause mortality within 28 (90) days after inclusion was 25.8% (34.8%). Mean age was 68.4 years and 61% were male. For the per protocol analysis, n=294 patients remained eligible, and 14-day all-cause mortality rate was 18.5%.
To validate the findings from example 10 and for proof of concept, the different lower thresholds for DPP3 at baseline (day 1) were assessed for efficacy of the anti-ADM antibody (Adrecizumab) therapy in the septic shock population with high bio-ADM from the AdrenOSS-2 study cohort and patients with a DPP3 plasma value above the different lower thresholds were excluded from the analyses. Efficacy of the anti-bio-ADM antibody therapy was specifically assessed to what concerns the mortality endpoint in the placebo and treated arms.
The DPP3 plasma levels in septic shock with high bio-ADM (above […]) patients (n=298) at baseline and in the following 144 h were statistically analysed with the aim of determining a DPP3 threshold at baseline to assess anti-ADM antibody therapy efficacy. Patients above the respective DPP3 plasma thresholds were excluded from the analyses. Different DPP3 plasma concentration thresholds have been applied for 28-day all-cause mortality evaluation using Kaplan-Meier plots comparing anti-ADM antibody therapy vs. placebo. The log-rank test was chosen for showing differences in mortality rates among treatment groups. Hazard ratios (HR) were calculated for each DPP3 plasma concentration threshold to estimate the reduction in mortality risk imposed by anti-ADM antibody therapy relative to placebo.
The different thresholds for DPP3 levels at baseline (day 1) were further used for subgroup analyses for 28-day all-cause mortality evaluation using Kaplan-Meier plots in the treated and placebo arms comparing anti-ADM antibody therapy (Adrecizumab) vs. placebo. The DPP3 plasma concentration thresholds at baseline used were 50 ng/ml and 30 ng/ml.

Adrecizumab: humanized N-terminal anti-ADM antibody; heavy chain SEQ ID NO: 32, light chain SEQ ID NO: 33
serious adverse events [1]: no serious adverse events were observed
HR for 14-day mortality ([2]; elevated DPP3 above 50 ng/mL): 1.69
HR for 14-day mortality ([2]; pre-dose DPP3 <40): 0.385
HR for 14-day mortality ([2]; pre-dose DPP3 <50 (ng/mL)): 0.426
HR for 14-day mortality ([2]; pre-dose DPP3 <60): 0.449
HR for 14-day mortality ([2]; pre-dose DPP3 <70): 0.546
HR for 14-day mortality ([2]; pre-dose DPP3 <90): 0.606
renal vascular leakage ([3]; mice with CLP-induced sepsis): attenuated
7-day survival ([3]; repeated dose administration (control 0%)): 40%
7-day survival ([3]; single dose administration (control 10%)): 50%
renal vascular leakage [4]: attenuated
all-cause mortality compared to the placebo arm ([5]; DPP3 below 30 ng/ml (n=195)): significantly reduced
all-cause mortality compared to the placebo arm ([5]; DPP3 below 50 ng/ml): lower than the placebo arm
all-cause mortality compared to the placebo arm ([5]; DPP3 below 50 ng/ml at baseline and continuously low during the next 144h): significantly lower
HR, 28-day all-cause mortality relative to placebo ([5]; DPP3 threshold at baseline 22 ng/ml): 0.258
HR, 28-day all-cause mortality relative to placebo ([5]; DPP3 threshold at baseline 30 ng/ml): 0.309
HR, 28-day all-cause mortality relative to placebo ([5]; DPP3 threshold at baseline 40 ng/ml): 0.568
HR, 28-day all-cause mortality relative to placebo ([5]; DPP3 threshold at baseline 50 ng/ml): 0.606
